# Data taken from publication PMC12612990, “PNA5, a glycosylated angiotensin-(1−7) mas receptor agonist for vascular dementia: A two species toxicology and toxicokinetic study” (Toxicology Reports, 2025).
# Peptide text beside a SMILES is read from it. * marks the point of attachment. βGlc = OC[C@H]1O[C@@H](*)[C@H](O)[C@@H](O)[C@@H]1O
# Assay: Toxicokinetics of PNA5 in Beagle dog plasma
# Details: for Tmax: table: average (range), text b115: median; for AUC0–2hr accumulation ratio: day 28 vs day 1, sexes combined; for fold increase in AUC0–2hr for a 20-fold increase in dose / fold increase in Cmax for a 20-fold increase in dose: 1 to 20 mg/kg/day; for time post-dose up to which PNA5 was quantifiable: days 1 and 28, limit of quantitation 5 ng/mL
# Description: Toxicokinetic (TK) of PNA5 was obtained from plasma following a single and repeated subcutaneous injection administration of PNA5 once daily for 28 days. Blood samples were collected on days 1 and 28 at the following time points: pre-dose and at approximately 5, 15, 30, 60, and 120 min post-dose (equivalent to 0.083, 0.25, 0.5, 1, and 2 h).
# For the rat study, a total of 6 rats for each sex were assigned randomly to treatment groups 2–4 (those treated with PNA5). Three rats per sex were assigned to group 1 (vehicle control). Rats were sampled in satellite groups; rats' blood was taken at alternating time points, resulting in a total n = 3 per time point for six animals. For the dog study, three animals per sex were assigned to group 2 and group 3, and five animals per sex were assigned to group 1 and group 4. Blood was collected from canines via venipuncture.
# Blood was collected in heparinized tubes containing a protease inhibitor cocktail consisting of 4 mM 0-phenanthroline, 1.2 mM pepstatin A, and 0.5 M EDTA. Blood samples were centrifuged for 15 min at 2500 x g at room temperature. Plasma was transferred into pre-cooled, pre-labeled collection tubes, frozen immediately in liquid nitrogen/dry ice, and stored at −80 °C until analysis.
# PNA5 levels were analyzed using ultra-high performance liquid chromatography (UHPLC) with tandem mass spectrometric (MS/MS) detection. Precision and accuracy, reproducibility, selectivity, carryover, recovery, matrix effects, dilution integrity, hemolysis, stock stability, and matrix stability were assessed prior to initiation of the validation. Samples (5 µL) were injected onto the column and separated using gradient elution. Target compounds were quantified by summing the height of previously identified fragment peaks in the LC-MS [3] spectra. The serum concentrations were estimated using a calibration curve, accounting for the dilution factors and the probe recoveries for each experiment. Standards were matrix-matched to samples and underwent the same sample preparation steps.
# A noncompartmental analysis was used for parameter estimation. For PNA5 in plasma, the extravascular model was used for parameter estimation. For the rat study, all parameters were generated from PNA5 individual concentrations in plasma from days 1 and 28. Parameters were estimated using nominal dose levels and nominal sampling times relative to the dose administration. Plasma concentration values obtained at the pre-dose time point were used as the concentration at time 0 on days 1 and 28. For the dog study, all parameters were generated from PNA5 individual concentrations in plasma from days 1 and 28. Parameters were estimated using nominal dose levels and nominal sampling times relative to dose administration. Plasma concentration values obtained at the pre-dose time point were used as the concentration at time 0 on days 1 and 28. For Beagle dogs, concentration values reported as below the limit of quantitation (< 5 ng/mL) were assigned a value of 0.
# The toxicokinetic parameters evaluated included the area under the curve of the plasma PNA5 concentration against time from time 0 (pre-dose) to 2 h (post-dose) (AUC0–2hr), the maximum plasma concentration (Cmax), time to maximum plasma concentration (Tmax), elimination rate (Kel), and the half-life. The area under the concentration vs. time curve was calculated using the linear trapezoidal method with linear interpolation for all profiles with at least three consecutive quantifiable concentrations. Kel was calculated from the slope using exponential regression of concentration versus time (Excel); exponential interpolations for all profiles include at least three concentrations plotted against time. Time 0 values and all concentrations listed as zero were excluded from Kel calculations. The half-life was calculated from Kel via the following equation: half-life Ln(2)/Kel.
structure (smiles),measurement,setting,value
"CC[C@H](C)[C@H](NC(=O)[C@H](Cc1ccc(O)cc1)NC(=O)[C@@H](NC(=O)[C@H](CCCNC(=N)N)NC(=O)[C@@H](N)CC(=O)O)C(C)C)C(=O)N[C@@H](Cc1c[nH]cn1)C(=O)N[C@@H](CO[C@@H]1O[C@H](CO)[C@@H](O)[C@H](O)[C@H]1O)C(N)=O [PNA5, Ang-1–6-Ser-O-Glu-NH2] (H-DRVYIHS(βGlc)-NH2)",Cmax,"both, Beagle, dog, plasma, sc, 1 mg/kg/day, Cmax, Beagle dogs, plasma, s.c. once daily 1 mg/kg/day, day 28, sexes combined, mean ± SD, n = 6, UHPLC-MS/MS, noncompartmental",146 ± 59.6 ng/mL
same,half-life,"both, Beagle, dog, plasma, sc, 1 mg/kg/day, dogs, plasma, s.c. 1 mg/kg/day, day 1, sexes combined, mean ± SD, n = 6, Ln(2)/Kel",17.4 ± 6 min
same,half-life,"both, Beagle, dog, plasma, sc, 1 mg/kg/day, dogs, plasma, s.c. 1 mg/kg/day, day 28, sexes combined, mean ± SD, n = 6, Ln(2)/Kel",15.6 ± 4.8 min
same,Tmax,"both, Beagle, dog, plasma, sc, 1 mg/kg/day, Tmax, dogs, plasma, s.c. 1 mg/kg/day, day 1, sexes combined",10 min
same,AUC(0-t),"both, Beagle, dog, plasma, sc, 5 mg/kg/day, AUC0–2, dogs, plasma, s.c. 5 mg/kg/day, day 1, sexes combined, mean ± SD, n = 6, linear trapezoidal",358 ± 95.1 ng·h/mL
same,AUC(0-t),"both, Beagle, dog, plasma, sc, 5 mg/kg/day, AUC0–2, dogs, plasma, s.c. 5 mg/kg/day, day 28, sexes combined, mean ± SD, n = 6, linear trapezoidal",365 ± 42.6 ng·h/mL
same,Cmax,"both, Beagle, dog, plasma, sc, 5 mg/kg/day, Cmax, Beagle dogs, plasma, s.c. once daily 5 mg/kg/day, day 1, sexes combined, mean ± SD, n = 6, UHPLC-MS/MS, noncompartmental",496 ± 115 ng/mL
same,Cmax,"both, Beagle, dog, plasma, sc, 5 mg/kg/day, Cmax, Beagle dogs, plasma, s.c. once daily 5 mg/kg/day, day 28, sexes combined, mean ± SD, n = 6, UHPLC-MS/MS, noncompartmental",444 ± 101 ng/mL
same,half-life,"both, Beagle, dog, plasma, sc, 5 mg/kg/day, dogs, plasma, s.c. 5 mg/kg/day, day 1, sexes combined, mean ± SD, n = 6, Ln(2)/Kel",30 ± 7.8 min
same,half-life,"both, Beagle, dog, plasma, sc, 5 mg/kg/day, dogs, plasma, s.c. 5 mg/kg/day, day 28, sexes combined, mean ± SD, n = 6, Ln(2)/Kel",34.8 ± 12.6 min
same,Tmax,"both, Beagle, dog, plasma, sc, 5 mg/kg/day, Tmax, dogs, plasma, s.c. 5 mg/kg/day, day 1, sexes combined",15 min
same,Tmax,"both, Beagle, dog, plasma, sc, 5 mg/kg/day, Tmax, dogs, plasma, s.c. 5 mg/kg/day, day 28, sexes combined",10 min
same,AUC(0-t),"both, Beagle, dog, plasma, sc, 20 mg/kg/day, AUC0–2, dogs, plasma, s.c. 20 mg/kg/day, day 1, sexes combined, mean ± SD, n = 10, linear trapezoidal",1270 ± 270 ng·h/mL
same,AUC(0-t),"both, Beagle, dog, plasma, sc, 20 mg/kg/day, AUC0–2, dogs, plasma, s.c. 20 mg/kg/day, day 28, sexes combined, mean ± SD, n = 10, linear trapezoidal",1080 ± 309 ng·h/mL
same,Cmax,"both, Beagle, dog, plasma, sc, 20 mg/kg/day, Cmax, Beagle dogs, plasma, s.c. once daily 20 mg/kg/day, day 1, sexes combined, mean ± SD, n = 10, UHPLC-MS/MS, noncompartmental",1440 ± 453 ng/mL
same,Cmax,"both, Beagle, dog, plasma, sc, 20 mg/kg/day, Cmax, Beagle dogs, plasma, s.c. once daily 20 mg/kg/day, day 28, sexes combined, mean ± SD, n = 10, UHPLC-MS/MS, noncompartmental",1120 ± 530 ng/mL
same,half-life,"both, Beagle, dog, plasma, sc, 20 mg/kg/day, dogs, plasma, s.c. 20 mg/kg/day, day 1, sexes combined, mean ± SD, n = 10, Ln(2)/Kel",41.4 ± 6 min
same,half-life,"both, Beagle, dog, plasma, sc, 20 mg/kg/day, dogs, plasma, s.c. 20 mg/kg/day, day 28, sexes combined, mean ± SD, n = 9, Ln(2)/Kel",48.6 ± 12.6 min
same,Tmax,"both, Beagle, dog, plasma, sc, 20 mg/kg/day, Tmax, dogs, plasma, s.c. 20 mg/kg/day, day 1, sexes combined",15 min
same,Tmax,"both, Beagle, dog, plasma, sc, 20 mg/kg/day, Tmax, dogs, plasma, s.c. 20 mg/kg/day, day 28, sexes combined",22.5 min
same,AUC0–2hr accumulation ratio,"dogs, 1 mg/kg/day",0.99
same,AUC0–2hr accumulation ratio,"dogs, 5 mg/kg/day",1.02
same,AUC0–2hr accumulation ratio,"dogs, 20 mg/kg/day",0.85
same,fold increase in AUC0–2hr for a 20-fold increase in dose,"dogs, day 1, sexes combined",~20.06 fold
same,fold increase in Cmax for a 20-fold increase in dose,"dogs, day 1, sexes combined",~13.06 fold
same,fold increase in AUC0–2hr for a 20-fold increase in dose,"dogs, day 28, sexes combined",~17.19 fold
same,fold increase in Cmax for a 20-fold increase in dose,"dogs, day 28, sexes combined",~7.70 fold
same,time post-dose up to which PNA5 was quantifiable,"dogs, plasma, 1 mg/kg/day",up to 1 h
same,time post-dose up to which PNA5 was quantifiable,"dogs, plasma, 5 and 20 mg/kg/day, last sampling time 2 h",up to 2 h
same,Kel,"dogs, plasma, s.c. 1 mg/kg/day, day 1, sexes combined, mean ± SD, n = 6, exponential regression","2.63 ± 0.97, 6 hr^–1"
same,Kel,"dogs, plasma, s.c. 1 mg/kg/day, day 28, sexes combined, mean ± SD, n = 6, exponential regression","2.87 ± 0.86, 6 hr^–1"
same,AUC0–2,"dogs, plasma, s.c. 1 mg/kg/day, day 28, sexes combined, mean ± SD, n = 6, linear trapezoidal","62.61 ± 19.05, 6 hr*ng/mL"
same,Tmax,"dogs, plasma, s.c. 1 mg/kg/day, day 28, sexes combined",0.167(0.083–0.25) hr
same,Kel,"dogs, plasma, s.c. 5 mg/kg/day, day 1, sexes combined, mean ± SD, n = 6, exponential regression","1.44 ± 0.33, 6 hr^–1"
same,Tmax,"dogs, plasma, s.c. 5 mg/kg/day, day 1, sexes combined",15 min
same,Kel,"dogs, plasma, s.c. 5 mg/kg/day, day 28, sexes combined, mean ± SD, n = 6, exponential regression","1.32 ± 0.43, 6 hr^–1"
same,Tmax,"dogs, plasma, s.c. 5 mg/kg/day, day 28, sexes combined",10 min
same,Kel,"dogs, plasma, s.c. 20 mg/kg/day, day 1, sexes combined, mean ± SD, n = 10, exponential regression","1.02 ± 0.17, 10 hr^–1"
same,Tmax,"dogs, plasma, s.c. 20 mg/kg/day, day 1, sexes combined",15 min
same,Kel,"dogs, plasma, s.c. 20 mg/kg/day, day 28, sexes combined, mean ± SD, n = 10, exponential regression","0.86 ± 0.35, 10 hr^–1"
same,AUC(0-t),"female, Beagle, dog, plasma, sc, 20 mg/kg/day, mean AUC0–2hr, females, dogs, females, 20 mg/kg/day (NOAEL), day 28",1150 ng·h/mL
same,Cmax,"female, Beagle, dog, plasma, sc, 20 mg/kg/day, mean Cmax, females, dogs, females, 20 mg/kg/day (NOAEL), day 28",1140 ng/mL
same,AUC(0-t),"male, Beagle, dog, plasma, sc, 20 mg/kg/day, mean AUC0–2hr, males, dogs, males, 20 mg/kg/day (NOAEL), day 28",1000 ng·h/mL
same,Cmax,"male, Beagle, dog, plasma, sc, 20 mg/kg/day, mean Cmax, males, dogs, males, 20 mg/kg/day (NOAEL), day 28",1100 ng/mL
